Here are results for 2 compounds from patent US20060269942A1, “In situ click chemistry method for screening high affinity molecular imaging probes” (priority 2005, published 2006).

Structures are written as SMILES. Read-outs that look alike come from different tables or passages of the source.

For one assay, the target named is T1, carbonic anhydrase II (Bos taurus, UniProt P00921).
T1 construct: Carbonic anhydrase II from bovine erythrocytes; purchased Sigma-Aldrich C2522; host or cells: bovine erythrocytes (natural source)
Put plainly: DNSA fluorescence competition binding assay for carbonic anhydrase II. The settings on record: in situ hit of FIG. 4 screen; enzyme species not stated at the place (bovine CA-II used for the screen and binding constants). From the text: (§1) General. Carbonic anhydrase II from bovine erythrocytes (Sigma-Aldrich, catalog number C2522; lot number 083K9295, 4,014 Wilbur-Anderson units/mg, 90% protein content by Biuret) was used for in situ click chemistry experiments and for the determination of binding constants. We tested the protein by SDS gel electrophoresis and found it to display a single band corresponding to 29-30,000 molecular weight units. Carbonic anhydrase II from human erythrocytes (Sigma Aldrich, catalog number C-6165, 4,260 wilbur-anderson units/mg) was used for the determination of binding affinities for the human enzyme. All fluorescence measurements were performed on a SPECTRA MAX GEMINI fluorescence plate reader at 37° C. […]
(§2) General. The fluorescence competition assay developed by Whitesides et al. (J. Am. Chem. Soc. 1994, 116, 5057) and J. C. […] The assay is based on the observation that the only fluorescence signal detected at 460 nm upon excitation at 290 nm, an absorption minimum for DNSA, is that of the DNSA·CA complex. With increasing sample concentration the fluorescence intensity due to DNSA·CA decreases as a result of competition with the test compound, allowing the determination of dissociation constants from Scatchard plots. […] The Kd values were determined from Scatchard plots using the equation below as described by Whitesides et.al. [CA·Inh]/[CA]tot·[Inh]=K11inh−K11inh{[CA·Inh]+[CA·DNSA]}/([CA]tot) […]

Assay [1] addresses T2, human carbonic anhydrase II (Homo sapiens, UniProt P00918).
T2 construct: Carbonic anhydrase II from human erythrocytes; purchased Sigma Aldrich C-6165; host or cells: human erythrocytes (natural source)
Put plainly: Titration of human carbonic anhydrase II with DNSA (fluorescence). It counts as binding. The following applies: enzyme 200 nM in pH 7.4 phosphate buffer, titrated with DNSA; read-out: dissociation constant (Kd) of CA·DNSA.
Source text: as §1, §2

Assay [2] addresses T3, bovine carbonic anhydrase II (Bos taurus, UniProt P00921).
T3 construct: Carbonic anhydrase II from bovine erythrocytes; purchased Sigma-Aldrich C2522; host or cells: bovine erythrocytes (natural source)
Kind of assay: Titration of bovine carbonic anhydrase II with DNSA (fluorescence). It counts as binding.
Source text: as §1, §2

T3 sequence (P00921 whole entry): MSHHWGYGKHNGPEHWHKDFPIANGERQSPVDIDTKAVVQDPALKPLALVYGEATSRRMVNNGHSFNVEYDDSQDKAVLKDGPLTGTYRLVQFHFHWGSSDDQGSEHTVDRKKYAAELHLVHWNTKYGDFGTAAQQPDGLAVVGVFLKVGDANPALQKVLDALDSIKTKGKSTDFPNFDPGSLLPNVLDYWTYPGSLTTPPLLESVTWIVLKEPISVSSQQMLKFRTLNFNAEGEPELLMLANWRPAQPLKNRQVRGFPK
T1 sequence (P00921 whole entry): as above

On to `CC(C)[C@@H](C(=O)NCc1cc(F)ccn1)n1cc(-c2ccc(S(N)(=O)=O)cc2)nn1` [the product], for which the affinity at carbonic anhydrase II, expressed as Kd, was 0.5 nM.

`CN(C)c1cccc2c(S(N)(=O)=O)cccc12` [DNSA]: the Kd (usually the constant that tells how readily two partners part at equilibrium) in assay [1] came out at 425 nM; in assay [2] (determined by titration experiments, value used in the mass balance, enzyme species not stated, read-out: dissociation constant Kd for DNSA), 390 nM; in assay [2] (enzyme 200 nM in pH 7.4 phosphate buffer, titrated with DNSA, read-out: dissociation constant (Kd) of CA·DNSA), 393 nM.
